Laboratory results taken from patent US8129366B2, “VLA-4 inhibitory drug” (Daiichi Sankyo Company, Limited, priority 2005, dated 2012).
Converted amounts (≈) assume the structure as drawn. Where two headings read alike, the source gives them in different places.

Legend:
[1] = molecular target: T1, hα4 and β1 integrins (Homo sapiens, UniProt P05556+P13612); assay: In vitro inhibition of binding between CHO cells expressing hα4 and β1 integrins and Eu3+-hVCAM-1 D1D7-IgG; details: for Ki: CHO cells expressing hα4 and β1 integrins, Eu3+-hVCAM-1 D1D7-IgG ligand, without HSA; for IC50: in the presence of 3% human serum albumin (HSA final concentration 3%)
T1 construct: expressed in transfected cells; host or cells: CHO cells
T1 sequence (P13612 34-1032): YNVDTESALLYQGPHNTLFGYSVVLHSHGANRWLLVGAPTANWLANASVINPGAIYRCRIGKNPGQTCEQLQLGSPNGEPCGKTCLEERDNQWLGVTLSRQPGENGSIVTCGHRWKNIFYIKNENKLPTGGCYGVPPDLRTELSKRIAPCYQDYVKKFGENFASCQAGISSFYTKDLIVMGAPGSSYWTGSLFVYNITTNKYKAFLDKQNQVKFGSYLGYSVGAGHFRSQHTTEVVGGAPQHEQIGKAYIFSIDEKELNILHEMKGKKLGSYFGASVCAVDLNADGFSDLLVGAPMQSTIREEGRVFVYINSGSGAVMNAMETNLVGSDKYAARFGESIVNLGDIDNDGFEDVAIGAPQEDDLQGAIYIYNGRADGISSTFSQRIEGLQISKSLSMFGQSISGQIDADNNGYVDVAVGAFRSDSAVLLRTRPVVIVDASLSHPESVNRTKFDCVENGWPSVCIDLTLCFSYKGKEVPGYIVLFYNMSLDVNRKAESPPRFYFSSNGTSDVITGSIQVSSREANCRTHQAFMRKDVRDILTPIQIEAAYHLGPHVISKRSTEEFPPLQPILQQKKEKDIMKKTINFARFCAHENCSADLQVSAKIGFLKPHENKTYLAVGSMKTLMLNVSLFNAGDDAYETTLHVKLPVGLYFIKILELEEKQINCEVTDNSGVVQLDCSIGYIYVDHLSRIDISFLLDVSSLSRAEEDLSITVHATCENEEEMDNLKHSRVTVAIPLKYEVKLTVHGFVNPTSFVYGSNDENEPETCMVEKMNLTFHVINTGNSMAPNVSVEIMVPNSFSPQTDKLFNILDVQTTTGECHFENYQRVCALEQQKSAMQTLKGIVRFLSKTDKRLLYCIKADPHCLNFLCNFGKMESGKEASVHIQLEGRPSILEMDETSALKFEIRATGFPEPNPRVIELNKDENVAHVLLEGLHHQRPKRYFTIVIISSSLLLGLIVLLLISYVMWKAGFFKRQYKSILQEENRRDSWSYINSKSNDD
T1 sequence (P05556 21-798): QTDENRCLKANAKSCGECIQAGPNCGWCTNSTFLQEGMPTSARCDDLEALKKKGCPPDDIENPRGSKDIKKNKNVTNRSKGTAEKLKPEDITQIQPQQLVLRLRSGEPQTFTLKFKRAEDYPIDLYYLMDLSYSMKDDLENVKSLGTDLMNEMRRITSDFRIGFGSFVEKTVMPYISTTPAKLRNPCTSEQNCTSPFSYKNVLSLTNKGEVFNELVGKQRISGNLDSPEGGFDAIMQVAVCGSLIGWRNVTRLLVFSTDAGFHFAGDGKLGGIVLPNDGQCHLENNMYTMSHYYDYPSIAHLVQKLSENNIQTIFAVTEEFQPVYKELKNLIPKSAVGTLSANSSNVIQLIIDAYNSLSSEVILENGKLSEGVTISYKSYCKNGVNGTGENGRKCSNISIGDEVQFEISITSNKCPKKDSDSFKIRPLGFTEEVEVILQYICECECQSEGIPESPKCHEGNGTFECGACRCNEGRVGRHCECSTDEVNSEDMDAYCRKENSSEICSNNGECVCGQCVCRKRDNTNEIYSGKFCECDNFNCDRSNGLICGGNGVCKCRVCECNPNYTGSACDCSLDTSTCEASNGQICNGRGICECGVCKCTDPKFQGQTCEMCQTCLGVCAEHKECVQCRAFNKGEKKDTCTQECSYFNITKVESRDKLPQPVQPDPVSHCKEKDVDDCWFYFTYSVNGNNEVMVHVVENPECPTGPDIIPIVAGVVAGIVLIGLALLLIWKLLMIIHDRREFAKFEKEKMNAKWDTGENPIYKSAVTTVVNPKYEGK
Outline: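 Bound europium-labelled VCAM-1 D1D7-IgG on α4β1-expressing CHO cells was measured by time-resolved fluorescence after washing at 4 °C. Ligand (2 nM working dilution) and test compound, with or without 3% final HSA, were co-incubated for 1 h at room temperature in Mn²⁺-containing HEPES buffer, pH 7.5. IC50 came from % binding inhibition; Ki was calculated from ligand concentration and Scatchard Kd.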

[2] = Solubility test in first and second liquid of the Japanese Pharmacopoeia
Experimental: (§2) The solubilities of the substance under test in the first liquid (JP1, pH=1.2) of the Japanese Pharmacopoeia and the second liquid (JP2, pH=6.8) of the Japanese Pharmacopoeia, were evaluated.

[3] = Test for pharmacokinetics and oral absorbability in monkeys; assay type: in vivo; details: orally 0.5 mg/kg, single agent; for AUC (ng · h/ml): total area under the plasma concentration versus time curve: LC/MS/MS
Experimental: The pharmacokinetic parameters in the case of orally administering (0.5 mg/kg, single agent) the substance under test to monkeys, were as follows.

[4] = for Solubility, First liquid of Japanese Pharmacopoeia: pH 1.2; for Solubility, Second liquid of Japanese Pharmacopoeia: pH 6.8
Experimental: as §2

[5] = tested on: eosinophile infiltration in mice actively sensitized with ascaris; assay: Test for eosinophile infiltration in mice actively sensitized with ascaris, administered two times a day; assay type: in vivo; details: orally 5 mg/kg two times a day; for inhibition in vivo at 5 mg/kg: Mus musculus, po, eosinophile count in BALF 48 hours after sensitization vs ascaris-sensitized group, read-out: suppression rate (%); for Average total eosinophile count (×10^5) of (ascaris-sensitized + substance under test) group: BALF 48 hours after sensitization
Experimental: (§1) Test for eosinophile infiltration in mice actively sensitized with ascaris (antigen to pig roundworm):
It has been reported that infiltration of eosinophilic cells is induced by active sensitization with ascaris {Int. Arch. Immuno., 108, 11-18 (1995)}. An evaluation of the compounds under test was performed according to the evaluation method described herein. The substance under test was orally administered in an amount of 5 mg/kg, two times a day. The total cell count and the eosinophile count in BALF of 48 hours after sensitization were calculated, and the effects were determined by comparing with the group not administered with the substance under test.

[6] = tested on: eosinophile infiltration in mice actively sensitized with ascaris; assay: Test for eosinophile infiltration in mice actively sensitized with ascaris, once-a-day administration; assay type: in vivo
Experimental: as §1
In the same manner as in Evaluation Example 2, the substances under test were orally administered once a day, in an amount of 5 mg/kg for compound A (representative compound of WO 02/053534) and the compound of Example 58, and in an amount of 0.8 mg/kg of the compound of Example 161, and an evaluation was performed in the same manner as in Evaluation Example 2.

[7] = first liquid of the Japanese Pharmacopoeia (JP1), pH 1.2, simulated gastric fluid, First liquid of Japanese Pharmacopoeia (μg/mL), JP1, pH=1.2
[8] = second liquid of the Japanese Pharmacopoeia (JP2), pH 6.8, aqueous buffer, Second liquid of Japanese Pharmacopoeia (μg/mL), JP2, pH=6.8

| Structure (SMILES) | Ki [1] [nM] | IC50 [1] [nM] | Solubility, First liquid of Japanese Pharmacopoeia ([2]; JP1, pH=1.2) [µg/mL] | Solubility, Second liquid of Japanese Pharmacopoeia ([2]; JP2, pH=6.8) [µg/mL] | Cltot (mL/min/kg): apparent plasma clearance [3] [mL/min/kg] | AUC (ng · h/ml): total area under the plasma concentration versus time curve [3] [ng·h/mL] | Solubility, First liquid of Japanese Pharmacopoeia [4] [µg/mL] | Solubility, Second liquid of Japanese Pharmacopoeia [4] [µg/mL] | solubility [2, 7] [µg/mL] | solubility [2, 8] [µg/mL] | inhibition in vivo at 5 mg/kg [5] [%] | Average total eosinophile count (×10^5) of (ascaris-sensitized + substance under test) group [5] | Average total eosinophile count (×10^5) of (ascaris-sensitized + substance under test) group ([6]; orally 5 mg/kg once a day) | Average total eosinophile count (×10^5) of (ascaris-sensitized + substance under test) group ([6]; orally 0.8 mg/kg once a day) |
| --- | --- | --- | --- | --- | --- | --- | --- | --- | --- | --- | --- | --- | --- | --- |
| COC1CN([C@H]2C[C@@H](CO[C@H]3CC[C@H](C(=O)O)CC3)N(C(=O)Cc3cc(Cl)c(NC(=O)c4cn(C)c5ccccc45)cc3Cl)C2)C1 (relative stereo) [Example 2, Trans-4-[1-[[2,5-dichloro-4-[(1-methyl-1H-indol-3-ylcarbonyl)amino]phenyl]acetyl]-(4S)-(3-methoxyazetidin-1-yl)-(2S)-pyrrolidinylmethoxy]cyclohexanecarboxylic acid] | 2.2 | 17 | >2000 | >2000 | 0.40 | 22185 | – | – | – | – | – | – | – | – |
| COC1CN([C@H]2C[C@@H](CO[C@H]3CC[C@H](C(=O)O)CC3)N(C(=O)Cc3cc(Cl)c(NC(=O)c4csc5ccccc45)cc3F)C2)C1 (relative stereo) [Example 3, Trans-4-[1-[[4-[(benzo[b]thiophen-3-ylcarbonyl)amino]-5-chloro-2-fluorophenyl]acetyl]-(4S)-(3-methoxyazetidin-1-yl)-(2S)-pyrrolidinylmethoxy]cyclohexanecarboxylic acid] | 0.97 | 11 | 1848 | 1989 | 0.26 | 32510 | – | – | – | – | – | – | – | – |
| COC1CN([C@H]2C[C@@H](CO[C@H]3CC[C@H](C(=O)O)CC3)N(C(=O)Cc3cc(Cl)c(NC(=O)c4csc5ccccc45)cc3Cl)C2)C1 (relative stereo) [Example 4, Trans-4-[1-[[4-[(benzo[b]thiophen-3-ylcarbonyl)amino]-2,5-dichlorophenyl]acetyl]-(4S)-(3-methoxyazetidin-1-yl)-(2S)-pyrrolidinylmethoxy]cyclohexanecarboxylic acid] | 0.8 | 19 | – | – | – | – | >2000 | >2000 | – | – | – | – | – | – |
| COC1CN([C@H]2C[C@@H](CO[C@H]3CC[C@H](C(=O)O)CC3)N(C(=O)Cc3cc(Cl)c(NC(=O)c4coc5ccccc45)cc3F)C2)C1 (relative stereo) [Example 5, Trans-4-[1-[[4-[(benzo[b]furan-3-ylcarbonyl)amino]-5-chloro-2-fluorophenyl]acetyl]-(4S)-(3-methoxyazetidin-1-yl)-(2S)-pyrrolidinylmethoxy]cyclohexanecarboxylic acid] | 1.4 | 12 | – | – | – | – | 1970 | >2000 | – | – | – | – | – | – |
| CO[C@H]1CN([C@H]2C[C@@H](CO[C@H]3CC[C@H](C(=O)O)CC3)N(C(=O)Cc3ccc(NC(=O)c4coc5ccccc45)c(Cl)c3)C2)C[C@H]1OC (relative stereo) [Example 61, Trans-4-[1-[[4-[(benzo[b]furan-3-ylcarbonyl)amino]-3-chlorophenyl]acetyl]-(4S)-(cis-3,4-dimethoxypyrrolidin-1-yl)-(2S)-pyrrolidinylmethoxy]cyclohexanecarboxylic acid] | 1.6 | 5.5 | – | – | – | – | 1100 | 1300 | – | – | – | – | – | – |
| CC1CN([C@H]2C[C@@H](CO[C@H]3CC[C@H](C(=O)O)CC3)N(C(=O)Cc3cc(Cl)c(NC(=O)c4cn(C)c5ccccc45)cc3Cl)C2)C1 [Example 10, Trans-4-[1-[[2,5-dichloro-4-[(1-methyl-1H-indol-3-ylcarbonyl)amino]phenyl]acetyl]-(4S)-(3-methylazetidin-1-yl)-(2S)-pyrrolidinylmethoxy]cyclohexanecarboxylic acid] | 9.5 | 37 | – | – | 0.80 | 10799 | – | – | > 2000 | > 2000 | 44 | 1.73 ×10^5 | – | – |
| CO[C@H]1CN([C@H]2C[C@@H](CO[C@H]3CC[C@H](C(=O)O)CC3)N(C(=O)Cc3cc(Cl)c(NC(=O)c4csc5ccccc45)cc3Cl)C2)C[C@H]1OC [Example 58, Trans-4-[1-[[4-[(benzo[b]thiophen-3-ylcarbonyl)amino]-2,5-dichlorophenyl]acetyl]-(4S)-(cis-3,4-dimethoxypyrrolidin-1-yl)-(2S)-pyrrolidinylmethoxy]cyclohexanecarboxylic acid] | 1.5 | 9.3 | – | – | 2.0 | 7555 | – | – | – | – | 63 | 1.63 ×10^5 | 1.73 ×10^5 | – |
| C[C@@H]1CN([C@H]2C[C@@H](CO[C@H]3CC[C@H](C(=O)O)CC3)N(C(=O)Cc3cc(Cl)c(NC(=O)c4coc5ccccc45)cc3Cl)C2)C[C@H](C)O1 [Example 83, Trans-4-[1-[[4-[(benzo[b]furan-3-ylcarbonyl)amino]-2,5-dichlorophenyl]acetyl]-(4S)-(cis-2,6-dimethylmorpholin-4-yl)-(2S)-pyrrolidinylmethoxy]cyclohexanecarboxylic acid] | 5.2 | 42 | – | – | 0.56 | 15064 | – | – | – | – | – | – | – | – |
| Cn1cc(C(=O)Nc2cc(F)c(CC(=O)N3C[C@@H](N4CCN(CCF)CC4)C[C@H]3CO[C@H]3CC[C@H](C(=O)O)CC3)cc2Cl)c2ccccc21 [Example 118, Trans-4-[1-[[5-chloro-2-fluoro-4-[(1-methyl-1H-indol-3-ylcarbonyl)amino]phenyl]acetyl]-(4S)-[4-(2-fluoroethyl)piperazin-1-yl]-(2S)-pyrrolidinylmethoxy]cyclohexanecarboxylic acid] | 3.9 | 13 | – | – | – | – | – | – | 1000 (≈ 1430 µM) | 1000 (≈ 1430 µM) | 67 | 1.41 ×10^5 | – | – |
| O=C(Nc1ccc(CC(=O)N2C[C@@H](N3CCN(CC(F)(F)F)CC3)C[C@H]2CO[C@H]2CC[C@H](C(=O)O)CC2)cc1Cl)c1nccc2ccccc12 [Example 127, Trans-4-[1-[[3-chloro-4-[(isoquinolin-1-ylcarbonyl)amino]phenyl]acetyl]-(4S)-[4-(2,2,2-trifluoroethyl)piperazin-1-yl]-(2S)-pyrrolidinylmethoxy]cyclohexanecarboxylic acid] | 9.6 | 34 | – | – | – | – | – | – | – | – | 63 | 1.40 ×10^5 | – | – |
| Cn1cc(C(=O)Nc2cc(Cl)c(CC(=O)N3C[C@@H](N4CCN(C5CC5)CC4)C[C@H]3CO[C@H]3CC[C@H](C(=O)O)CC3)cc2Cl)c2ccccc21 [Example 139, Trans-4-[1-[[2,5-dichloro-4-[(1-methyl-1H-indol-3-ylcarbonyl)amino]phenyl]acetyl]-(4S)-(4-cyclopropylpiperazin-1-yl)-(2S)-pyrrolidinylmethoxy]cyclohexanecarboxylic acid] | 2.5 | 13 | – | – | 1.2 | 7329 | – | – | – | – | – | – | – | – |
| O=C(Nc1cc(F)c(CC(=O)N2C[C@@H](N3CCS(=O)(=O)CC3)C[C@H]2CO[C@H]2CC[C@H](C(=O)O)CC2)cc1Cl)c1coc2ccccc12 [Example 161, Trans-4-[1-[[4-[(benzo[b]furan-3-ylcarbonyl)amino]-5-chloro-2-fluorophenyl]acetyl]-(4S)-(1,1-dioxo-1λ^6-thiomorpholin-4-yl)-(2S)-pyrrolidinylmethoxy]cyclohexanecarboxylic acid] | 1.8 | 8.3 | – | – | – | – | – | – | – | – | – | – | – | 2.06 ×10^5 |
